Measured values as given in the supplement of paper PMC7600603.

What was measured:
DLD1 NRF2-WT [1] = conditions: 72 h; CellTiter-Glo viability
In short: (§1)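 Library compounds were tested in 384-well plates at 5 concentrations covering a 10,000-fold span against isogenic DLD1 colorectal cancer cells, NRF2 wild-type or CRISPR gain-of-function, grown in DMEM with 10% FBS. Viability was measured at 72 h with CellTiter-Glo on a Pherastar FS reader, relative to vehicle wells and 100-μM positive-control wells. EC50 and drug sensitivity score (normalised area under the curve) were derived from logistic dose-response curves fitted with four parameters.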

DLD1 NRF2-GOF [2] = test: TC50 cytotoxicity; higher = less toxic; conditions: 72 h; CellTox Green cytotoxicity
In short: (§2)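 TC50 and drug sensitivity score, a normalised area under the curve, were derived by logistic dose-response fits of cytotoxicity. The cells were an isogenic DLD1 colorectal cancer pair, NRF2 wild-type or CRISPR-edited, kept in DMEM with 10% FBS. Compounds were tested in 384-well plates at 5 concentrations across a 10,000-fold range for 72 h. Readings with CellTox Green on a Pherastar FS reader were normalised to vehicle wells and 100-μM positive-control wells.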

DLD1 NRF2-WT [3] = test: TC50 cytotoxicity; higher = less toxic; conditions: 72 h; CellTox Green cytotoxicity
In short: as §2

DLD1 NRF2-GOF [4] = test: drug sensitivity score (DSS) cytotoxicity (DSS score); higher = more toxic; extreme values may be limits of the assay; conditions: 72 h; CellTox Green cytotoxicity
In short: as §2

DLD1 NRF2-WT [5] = test: as above; conditions: 72 h; CellTox Green cytotoxicity
In short: as §2

DLD1 NRF2-WT [6] = test: drug sensitivity score (DSS) viability (DSS score); higher = more sensitive; extreme values may be limits of the assay; conditions: 72 h; CellTiter-Glo viability
In short: as §1

DLD1 NRF2-GOF [7] = test: as above; conditions: 72 h; CellTiter-Glo viability
In short: as §1

| Compound | EC50 viability (DLD1 NRF2-WT [1]) | TC50 cytotoxicity (DLD1 NRF2-GOF [2]) | TC50 cytotoxicity (DLD1 NRF2-WT [3]) | drug sensitivity score (DLD1 NRF2-GOF [4]) | drug sensitivity score (DLD1 NRF2-WT [5]) | drug sensitivity score (DLD1 NRF2-WT [6]) | drug sensitivity score (DLD1 NRF2-GOF [7]) |
| --- | --- | --- | --- | --- | --- | --- | --- |
| CCCCCCCCCCCCCCCCOP(=O)([O-])OCC[N+](C)(C)C [Miltefosine] | 7670 nM | 10400 nM | 7400 nM | 9.7 | 11 | 13.1 |  |
| CO[C@H](C(=O)[C@@H](O)[C@@H](C)O)[C@@H]1Cc2cc3cc(O[C@H]4C[C@@H](O[C@H]5C[C@@H](O)[C@H](O)[C@@H](C)O5)[C@@H](O)[C@@H](C)O4)c(C)c(O)c3c(O)c2C(=O)[C@H]1O[C@H]1C[C@@H](O[C@H]2C[C@@H](O[C@H]3C[C@](C)(O)[C@H](O)[C@@H](C)O3)[C@H](O)[C@@H](C)O2)[C@H](O)[C@@H](C)O1 [Plicamycin] | 119 nM | > 10000 nM | > 10000 nM | 0 | 1.7 | 21.8 |  |
| CC/C(=C(\c1ccccc1)c1ccc(OCCN(C)C)cc1)c1ccccc1 [Tamoxifen] | 4360 nM | > 10000 nM | > 10000 nM | 0 | 0 | 2 |  |
| CNCc1ccc(-c2[nH]c3cc(F)cc4c3c2CCNC4=O)cc1 [Rucaparib] |  | > 10000 nM | > 10000 nM | 0 | 0 | 0.8 | 2.7 |
| C=CC(=O)Nc1cccc(Oc2nc(Nc3ccc(N4CCN(C)CC4)cc3)nc3ccsc23)c1 [Olmutinib] |  | > 1000 nM | > 1000 nM | 0 | 0 | 2.6 | 2.8 |
| C=C1C[C@@H]2CC[C@@]34C[C@H]5O[C@H]6[C@@H](O3)[C@H]3O[C@H](CC[C@@H]3O[C@H]6[C@H]5O4)CC(=O)C[C@@H]3[C@@H](OC)[C@@H](C[C@H](O)CN)O[C@H]3C[C@H]3O[C@@H](CC[C@@H]1O2)C[C@@H](C)C3=C [Eribulin] | 5.1 nM | > 1000 nM | > 1000 nM | 4.4 | 3.3 | 22.6 |  |
| Clc1ccccc1C(c1ccccc1)(c1ccccc1)n1cccn1 [TRAM-34] | > 1000 nM |  |  |  |  | 2.2 | 6.4 |
| C[C@@H](Oc1cc(-n2cnc3ccc(CN4CCN(C)CC4)cc32)sc1C(N)=O)c1ccccc1C(F)(F)F | 3.3 nM | > 10000 nM | > 10000 nM | 8 | 2.4 | 33.6 |  |
| CC[C@H](NC(=O)[C@H](C)NC)C(=O)N1C[C@@H](O)C[C@H]1Cc1c(-c2[nH]c3cc(F)ccc3c2C[C@@H]2C[C@H](O)CN2C(=O)[C@H](CC)NC(=O)[C@H](C)NC)[nH]c2cc(F)ccc12 [Birinapant] | > 1000 nM | > 1000 nM | > 1000 nM | 0 | 0 | 0.1 |  |
| C=CC(=O)N1CC/C(=C\c2ccc(F)c([N+](=O)[O-])c2)C(=O)/C(=C/c2ccc(F)c([N+](=O)[O-])c2)C1 [VLX1570] | 50.4 nM | 5340 nM | 67.7 nM | 2.7 | 21.9 | 27.9 |  |
| O=C(Nc1cccc(NC(=O)c2cccc(O)c2O)c1)c1cccc(O)c1O [MST-312] | 238 nM | > 10000 nM | > 10000 nM | 0 | 0 | 10.4 |  |
| C[C@H]1C[C@@H]2[C@H]([C@@H](O)C[C@@]3(C)[C@H]2CC[C@]3(O)C(=O)CO)[C@@]2(C)C=CC(=O)C=C12 [Methylprednisolone] |  | > 10000 nM | > 10000 nM | 0 | 0 |  | 2.9 |

Continued, in another order:

| EC50 viability (DLD1 NRF2-WT [1]) | Compound | TC50 cytotoxicity (DLD1 NRF2-GOF [2]) | TC50 cytotoxicity (DLD1 NRF2-WT [3]) | drug sensitivity score (DLD1 NRF2-GOF [4]) | drug sensitivity score (DLD1 NRF2-WT [5]) | drug sensitivity score (DLD1 NRF2-WT [6]) | drug sensitivity score (DLD1 NRF2-GOF [7]) |
| --- | --- | --- | --- | --- | --- | --- | --- |
| 13.3 nM | Cc1cc(F)c(C(=O)Nc2cccc(-c3nncn3C(C)C)n2)cc1-n1cnc(C2CC2)c1 [Selonsertib] | > 1000 nM | > 1000 nM | 0 | 0 | 4.9 | 3.7 |
| 2380 nM | COc1cc2c(cc1OC(C)C)[C@H](c1ccc(Cl)cc1)N(c1ccc(N(C)C[C@H]3CC[C@H](N4CCN(C)C(=O)C4)CC3)cc1)C(=O)C2 [NVP-CGM097] | > 25000 nM | > 25000 nM | 0 | 0 | 3.4 |  |
| 808 nM | Cc1cccc(CC(=O)N2CCc3c2ccc(-c2cn(C)c4ncnc(N)c24)c3F)n1 | > 2500 nM | > 2500 nM | 0 | 0 | 2.5 |  |
| > 10000 nM | C[C@H]1C[C@@H](n2c(Nc3ccc(OC(F)(F)F)cc3)nc3cc(CCC(=O)O)ccc32)CC(C)(C)C1 | > 10000 nM | > 10000 nM | 0 | 0 | 0.3 |  |
| > 10000 nM | COc1cc(Nc2ncc(F)c(Nc3ccc4c(n3)NC(=O)C(C)(C)O4)n2)cc(OC)c1OC [Tamatinib] | > 10000 nM | > 10000 nM | 0 | 0 | 1 |  |
| 5030 nM | CC1=NN(c2ccc(C(=O)O)cc2)C(=O)C1=Cc1ccc(-c2cc(C)c(C)cc2[N+](=O)[O-])o1 [C646] | > 25000 nM | > 25000 nM | 0 | 0 | 2.8 |  |
| 33.4 nM | COc1ccc(-c2nc(N3CCOCC3)c3sc(CN(C)c4ncc(C(=O)NO)cn4)cc3n2)cn1 [CUDC-907] | 509 nM | 105 nM | 6.9 | 14.6 | 29.8 |  |
| 1250 nM | COc1cc(OC2CCN(C)CC2)ccc1Nc1ncc2c(n1)n(C1CCCC1)c(=O)n2C [AZ 3146] | > 10000 nM | 1580 nM | 1.6 | 2.5 | 8 |  |
| 37 nM | CC(=O)Nc1cccc(-n2c(=O)n(C3CC3)c(=O)c3c(Nc4ccc(I)cc4F)n(C)c(=O)c(C)c32)c1 [Trametinib] | > 250 nM | > 250 nM | 0 | 0 | 3.1 |  |
| 3290 nM | Nc1ccccc1NC(=O)c1ccc(CNc2nccc(-c3cccnc3)n2)cc1 [Mocetinostat] | > 10000 nM | > 10000 nM | 0 | 1.6 | 4 |  |
| 3430 nM | O=C(Nc1cc(Oc2cc(F)c(NC(=O)C3(C(=O)Nc4ccc(F)cc4)CC3)cc2F)ccn1)C1CC1 [Altiratinib] | > 10000 nM | > 10000 nM | 0.2 | 0.6 | 5.1 |  |
